The results in this text go back to article PMC10067623, “Characterization of an Aplysia vasotocin signaling system and actions of posttranslational modifications and individual residues of the ligand on receptor activity” (Frontiers in Pharmacology, 2023).

In test [1] the target is T1, apVTR1 (Aplysia californica, UniProt A0ABM1ABB6).
T1 sequence (A0ABM1ABB6 1-470): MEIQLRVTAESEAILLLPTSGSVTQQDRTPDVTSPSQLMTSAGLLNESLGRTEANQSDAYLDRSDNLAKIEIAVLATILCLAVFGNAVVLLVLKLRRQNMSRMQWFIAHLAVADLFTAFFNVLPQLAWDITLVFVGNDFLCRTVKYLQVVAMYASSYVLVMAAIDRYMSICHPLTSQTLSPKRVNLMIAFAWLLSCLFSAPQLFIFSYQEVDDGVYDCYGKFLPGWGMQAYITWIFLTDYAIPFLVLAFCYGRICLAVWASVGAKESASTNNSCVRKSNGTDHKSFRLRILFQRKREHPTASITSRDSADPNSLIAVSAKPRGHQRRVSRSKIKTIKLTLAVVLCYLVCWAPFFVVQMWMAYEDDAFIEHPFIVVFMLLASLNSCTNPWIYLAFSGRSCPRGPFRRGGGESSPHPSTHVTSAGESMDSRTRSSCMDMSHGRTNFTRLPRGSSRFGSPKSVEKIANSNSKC
The test can be described thus: cell-based. The class given is cell-based. The conditions noted are these: for apVTR1 log[EC50]: log[EC50] with negative sign as printed, average, n = 3; for apVTR1 log[EC50] / activation of apVTR1 (IP1 response), in words: CHO-K1 cells, without promiscuous Gαq.

Test [2] deals with apVTR2. Kind of test: IP1 accumulation assay, apVTR2 transiently expressed in CHO-K1 cells. The class given is cell-based, Aplysia californica. The conditions noted are these: for apVTR2 log[EC50]: log[EC50] with negative sign as printed, average.
In test [3] the test system is Class-A GPCR 3. Kind of test: IP1 accumulation assay, Class-A GPCR 3 co-transfected with promiscuous Gαq (Gα16) in CHO-K1 cells. The class given is cell-based, Aplysia californica.
Setting [4] is: n = 3, CHO-K1 cells, without promiscuous Gαq.
Where [5] appears, read: co-transfected with promiscuous Gαq, 10^-5 M vs 10^-10 M (control).
The mark [6] stands for this setting: co-transfected with promiscuous Gαq (Gα16), 10^-5 M vs 10^-10 M.
[7] abbreviates: CHO-K1 cells, without promiscuous Gαq, dose-response 10^-12 M to 10^-4 M, n = 3.
The mark [8] stands for this setting: CHO-K1 cells, without promiscuous Gαq.

Values joined by “and” are separate entries in the source; they are usually repeats but may differ in a detail not shown here. Equal entries are not always repeated. “Also recorded” adds a separate entry of the source. Where two headings read alike, the source gives them in different places. Bridge positions count the residues as written; N and C are the ends. Peptide text beside a SMILES is read from it. * marks the point of attachment. Acm = CC(=O)NC*

Regarding `CC[C@H](C)[C@@H]1NC(=O)[C@H](Cc2ccccc2)NC(=O)[C@@H](N)CSSC[C@@H](C(=O)N2CCC[C@H]2C(=O)N[C@@H](CCCCN)C(=O)N[C@@H](C)C(N)=O)NC(=O)[C@H](CC(N)=O)NC(=O)[C@H](CCCNC(=N)N)NC1=O` [[Ala^9]apVT] (H-CFIRNCPKA-NH2; disulfide 1-6), the EC50 in test [1] (apVTR1 EC50) and in test [1] (apVTR1 log[EC50]) was 1 µM throughout.

In the case of `CC[C@H](C)[C@@H]1NC(=O)[C@H](Cc2ccccc2)NC(=O)[C@@H](N)CSSC[C@@H](C(=O)N2CCC[C@H]2C(=O)N[C@@H](CCCCN)C(=O)NCC(=O)O)NC(=O)[C@H](CC(N)=O)NC(=O)[C@H](CCCNC(=N)N)NC1=O` [apVT-OH] (H-CFIRNCPKG-OH; disulfide 1-6; N-terminus assumed), the figures for the EC50 in test [1] (apVTR1 EC50), in test [1] (apVTR1 log[EC50]) and in test [2] were 3.5 µM, 3.16 µM and 1 µM, respectively. Further, in test [2] (setting [4]), the “apVTR2 log[EC50]” value is given as -6.0±0.06 M.

Regarding `CC[C@H](C)[C@@H]1NC(=O)[C@H](Cc2ccccc2)NC(=O)[C@@H](N)CSSC[C@@H](C(=O)N2CCC[C@H]2C(=O)N[C@@H](CCCCN)C(=O)NCC(N)=O)NC(=O)[C@H](C)NC(=O)[C@H](CCCNC(=N)N)NC1=O` [[Ala^5]apVT] (H-CFIRACPKG-NH2; disulfide 1-6), the EC50 was 6 µM in test [1] (apVTR1 EC50) and 6.31 µM in test [1] (apVTR1 log[EC50]).

In the case of `CC[C@H](C)[C@@H]1NC(=O)[C@H](Cc2ccccc2)NC(=O)[C@@H](N)CSSC[C@@H](C(=O)N2CCC[C@H]2C(=O)N[C@@H](CCCCN)C(=O)NCC(N)=O)NC(=O)[C@H](CC(N)=O)NC(=O)[C@H](CCCNC(=N)N)NC1=O` [apVT, Aplysia vasotocin] (H-CFIRNCPKG-NH2; disulfide 1-6; N-terminus assumed), in test [3], the “activation of Class-A GPCR 3 (IP1 response), in words” value is recorded as “no response; also recorded: not responsive”. Moreover, the “apVTR1 EC50” value in test [1] was found to be 0.065 µM. For the same compound, the EC50 in test [1] (apVTR1 EC50) is 0.07 µM; in test [2] it was 0.077 µM and 0.07 µM. The “screening of apVTR1 activation (IP1 response), in words” value in test [1] (setting [5]) was “responded”. In addition, the “apVTR1 log[EC50]” value is given as -7.2±0.036 M in test [1] and -7.2±0.07 M in test [1] (listed as apVT'). Moreover, the “screening of apVTR2 activation (IP1 response), in words” value in test [2] (setting [5]) is recorded as “responded”. In addition, the “apVTR2 log[EC50]” value in test [2] (setting [4]) is reported as -7.1±0.18 M; in test [2] (n = 3, CHO-K1 cells, without promiscuous Gαq, listed as apVT'), -7.2±0.15 M.

In the case of `CC[C@H](C)[C@H](NC(=O)[C@H](Cc1ccccc1)NC(=O)[C@@H](N)CS)C(=O)N[C@@H](CCCNC(=N)N)C(=O)N[C@@H](CC(N)=O)C(=O)N[C@@H](CS)C(=O)N1CCC[C@H]1C(=O)N[C@@H](CCCCN)C(=O)NCC(=O)O` [apVT'-OH] (H-CFIRNCPKG-OH; N-terminus assumed), the EC50 was 2.2 µM in test [1] (apVTR1 EC50), 2 µM in test [1] (apVTR1 log[EC50]) and 2.2 µM in test [2]. Also, in test [2] (setting [4]), the “apVTR2 log[EC50]” value is given as -5.6±0.18 M.

Regarding `CC(C)[C@@H]1NC(=O)[C@H](Cc2ccccc2)NC(=O)[C@@H](N)CSSC[C@@H](C(=O)N2CCC[C@H]2C(=O)N[C@H](C(=O)NCC(N)=O)[C@@H](C)O)NC(=O)[C@H](CC(N)=O)NC(=O)[C@H](CCCNC(=N)N)NC1=O` [Annetocin, reference compound] (H-CFVRNCPTG-NH2; disulfide 1-6), the “activation of Class-A GPCR 3 (IP1 response), in words” value in test [3] (setting [6]) is reported as “do not affect; also recorded: none of the four peptides had any effects”. For the same compound, the EC50 in test [1] (apVTR1 EC50) is 5.6 µM; in test [1] (apVTR1 log[EC50]) it was 6.31 µM; in test [2] (setting [7]), 1.1 µM. Also, in test [2] (setting [4]), the “apVTR2 log[EC50]” value is -6.0±0.20 M.

Take Vasopressin [reference compound]: the “activation of Class-A GPCR 3 (IP1 response), in words” value was “none of the four peptides had any effects” in test [3] (setting [6]) and “do not affect” in test [3] (co-transfected with promiscuous Gαq (Gα16), 10^-5 M vs 10^-10 M, listed as Vasopressin). The “activation of apVTR1 (IP1 response), in words” value in test [1] is given as “no effects”. In addition, the “activation of apVTR2 (IP1 response), in words” value in test [2] (setting [8]) was “no effects”.

As to `C[C@@H]1NC(=O)[C@H](Cc2ccccc2)NC(=O)[C@@H](N)CSSC[C@@H](C(=O)N2CCC[C@H]2C(=O)N[C@@H](CCCCN)C(=O)NCC(N)=O)NC(=O)[C@H](CC(N)=O)NC(=O)[C@H](CCCNC(=N)N)NC1=O` [[Ala^3]apVT] (H-CFARNCPKG-NH2; disulfide 1-6), the values for the EC50 in test [1] (apVTR1 EC50) and in test [1] (apVTR1 log[EC50]) were 30 µM and 31.6 µM, respectively.

For the compound `CC[C@H](C)[C@H](NC(=O)[C@H](Cc1ccccc1)NC(=O)[C@@H](N)CS)C(=O)N[C@@H](CCCNC(=N)N)C(=O)N[C@@H](CC(N)=O)C(=O)N[C@@H](CSCNC(C)=O)C(=O)N1CCC[C@H]1C(=O)N[C@@H](CCCCN)C(=O)NCC(N)=O` [[Cys(Acm)^6]apVT] (H-CFIRNC(Acm)PKG-NH2; N-terminus assumed), the EC50 in test [1] (apVTR1 EC50) was 1.5 µM; in test [1] (apVTR1 log[EC50]), 1.58 µM; in test [2] it was 7.8 µM. The “apVTR2 log[EC50]” value in test [2] (setting [4]) was -5.1±0.21 M.

As for Urotensin II, the “activation of Class-A GPCR 3 (IP1 response), in words” value in test [3] (setting [6]) was “not responsive to any of these”.

On to `CC[C@H](C)[C@@H]1NC(=O)[C@H](Cc2ccccc2)NC(=O)[C@@H](N)CSSC[C@@H](C(=O)N[C@@H](C)C(=O)N[C@@H](CCCCN)C(=O)NCC(N)=O)NC(=O)[C@H](CC(N)=O)NC(=O)[C@H](CCCNC(=N)N)NC1=O` [[Ala^7]apVT] (H-CFIRNCAKG-NH2; disulfide 1-6), for which the EC50 was 1.1 µM in test [1] (apVTR1 EC50) and 1 µM in test [1] (apVTR1 log[EC50]).

For AstC, in test [3] (setting [6]), the “activation of Class-A GPCR 3 (IP1 response), in words” value was “not responsive to any of these”.

Regarding `CC[C@H](C)[C@@H]1NC(=O)[C@H](Cc2ccccc2)NC(=O)[C@@H](N)CSSC[C@@H](C(=O)N2CCC[C@H]2C(=O)N[C@@H](C)C(=O)NCC(N)=O)NC(=O)[C@H](CC(N)=O)NC(=O)[C@H](CCCNC(=N)N)NC1=O` [[Ala^8]apVT] (H-CFIRNCPAG-NH2; disulfide 1-6), the EC50 in test [1] (apVTR1 EC50) is 1.5 µM; in test [1] (apVTR1 log[EC50]), 1.58 µM.

As to `CC[C@H](C)[C@H](NC(=O)[C@H](Cc1ccccc1)NC(=O)[C@@H](N)CSCNC(C)=O)C(=O)N[C@@H](CCCNC(=N)N)C(=O)N[C@@H](CC(N)=O)C(=O)N[C@@H](CSCNC(C)=O)C(=O)N1CCC[C@H]1C(=O)N[C@@H](CCCCN)C(=O)NCC(N)=O` [[Cys(Acm)^1,6]apVT] (H-C(Acm)FIRNC(Acm)PKG-NH2; N-terminus and C-terminus assumed), the EC50 was 12 µM in test [1] (apVTR1 EC50), 12.6 µM in test [1] (apVTR1 log[EC50]) and 47 µM in test [2]. For the same compound, the “apVTR2 log[EC50]” value in test [2] (setting [4]) is recorded as -4.3±0.57 M.

Take `CC[C@H](C)[C@H](NC(=O)[C@H](Cc1ccccc1)NC(=O)[C@@H](N)CSCNC(C)=O)C(=O)N[C@@H](CCCNC(=N)N)C(=O)N[C@@H](CC(N)=O)C(=O)N[C@@H](CS)C(=O)N1CCC[C@H]1C(=O)N[C@@H](CCCCN)C(=O)NCC(N)=O` [[Cys(Acm)^1]apVT] (H-C(Acm)FIRNCPKG-NH2; N-terminus assumed): the concentration giving a half-maximal response (EC50) was 2.9 µM in test [1] (apVTR1 EC50), 3.16 µM in test [1] (apVTR1 log[EC50]) and 7.8 µM in test [2]. Also, in test [2] (setting [4]), the “apVTR2 log[EC50]” value is -5.1±0.21 M.

With `CC[C@H](C)[C@@H]1NC(=O)[C@H](Cc2ccc(O)cc2)NC(=O)[C@@H](N)CSSC[C@@H](C(=O)N2CCC[C@H]2C(=O)N[C@@H](CC(C)C)C(=O)NCC(N)=O)NC(=O)[C@H](CC(N)=O)NC(=O)[C@H](CCC(N)=O)NC1=O` [Oxytocin, reference compound], in test [3] (setting [6]), the “activation of Class-A GPCR 3 (IP1 response), in words” value was “do not affect; also recorded: none of the four peptides had any effects”. For the same compound, the “activation of apVTR1 (IP1 response), in words” value in test [1] is listed as “weak activation effect”. Further, the results for the EC50 in test [1] (apVTR1 EC50), in test [1] (apVTR1 log[EC50]) and in test [2] (setting [7]) were 16 µM, 15.8 µM and 3.6 µM, respectively. Also, in test [2] (setting [8]), the “activation of apVTR2 (IP1 response), in words” value was “weak activation effect”. In addition, the “apVTR2 log[EC50]” value in test [2] (setting [4]) is listed as -5.4±0.016 M.

The term EC50 denotes the concentration giving half of the maximal effect. Read a low EC50 as higher potency in that assay.
